What was measured:
[1] = test system: eosinophils; experiment: Eosinophil shape change assay with human plasma; assay type: cell-based; conditions: Homo sapiens, Eosinophil, human plasma (50%), PGD2 100 nM activation, antagonistic activity
How it was run: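 Human polymorphonuclear cells stained with anti-CD49d-APC, combined with compound-preincubated human plasma (50% of final volume, 4×10^6 cells/ml) for 10 min at 37° C., then stimulated 5 min with 100 nM PGD2 and fixed. Flow cytometry scored percent eosinophils with increased forward scatter.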

[2] = molecular target: hCRTH2 receptor (Homo sapiens (Human), UniProt Q9Y5Y4); experiment: hCRTH2 receptor membranes radioligand (3H-PGD2) displacement assay; assay type: binding; conditions: 3H-PGD2 radioligand displacement, HEK293-hCRTH2 membranes
hCRTH2 receptor, sequence (Q9Y5Y4 whole entry): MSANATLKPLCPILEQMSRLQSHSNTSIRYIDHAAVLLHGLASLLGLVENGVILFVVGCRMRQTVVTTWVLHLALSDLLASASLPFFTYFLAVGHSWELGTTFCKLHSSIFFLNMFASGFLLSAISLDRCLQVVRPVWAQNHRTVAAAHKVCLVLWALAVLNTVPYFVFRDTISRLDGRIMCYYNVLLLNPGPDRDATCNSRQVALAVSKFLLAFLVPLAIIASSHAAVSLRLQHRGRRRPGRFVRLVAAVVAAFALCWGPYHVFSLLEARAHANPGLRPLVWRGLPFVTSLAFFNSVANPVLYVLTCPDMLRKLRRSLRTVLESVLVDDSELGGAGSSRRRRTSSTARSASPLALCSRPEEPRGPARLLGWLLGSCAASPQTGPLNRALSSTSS
How it was run: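 HEK293-hCRTH2 membranes, 20 μg/well; 3H-PGD2 added at 2.5 nM; binding buffer 50 mM Tris, 10 mM MnCl2, 1 mM EDTA, pH 7.0; 90 min RT; GF/C filtration, scintillation count. Nonspecific binding: PGD2 at […].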

Row | IC50 [1] | IC50 [2] | SMILES
1 | 113 nM | 16.3 nM | COc1ccc(CC(=O)O)cc1-c1ccc(F)c2c1CN(C(=O)CCn1nc(C)c3ccccc31)CC2 [Example 125, (3-{5-Fluoro-2-[3-(3-methyl-indazol-1-yl)-propionyl]-1,2,3,4-tetrahydro-isoquinolin-8-yl}-4-methoxy-phenyl)-acetic acid]
2 | 258 nM | 13.2 nM | COc1ccc(CC(=O)O)cc1-c1ccc(F)c2c1CN(C(=O)CC(C)(C)c1cccc(F)c1)CC2 [Example 252, (3-{5-Fluoro-2-[3-(3-fluoro-phenyl)-3-methyl-butyryl]-1,2,3,4-tetrahydro-isoquinolin-8-yl}-4-methoxy-phenyl)-acetic acid]
3 | 92 nM | 20.6 nM | COc1ccc(CC(=O)O)cc1-c1ccc(F)c2c1CN(C(=O)CC1CCOc3cc(F)ccc31)CC2 (racemic) [Example 243]
4 | 436 nM | 12 nM | COc1ccc(CC(=O)O)cc1-c1cc(F)c(F)c2c1CN(C(=O)OCc1ccccc1)CC2 [Example 31, 8-(5-Carboxymethyl-2-methoxy-phenyl)-5,6-difluoro-3,4-dihydro-1H-isoquinoline-2-carboxylic acid benzyl ester]
5 | 15 nM | 1.8 nM | CCOc1ccc(CC(=O)O)cc1-c1ccc(F)c2c1CN(C(=O)CC(C)c1cccc(C)n1)CC2 (racemic) [Example 328]
6 | 12 nM | 1.2 nM | CCOc1ccc(CC(=O)O)cc1-c1ccc(F)c2c1CN(C(=O)OCc1ccccn1)CC2 [Example 394, 8-(5-Carboxymethyl-2-ethoxy-phenyl)-5-fluoro-3,4-dihydro-1H-isoquinoline-2-carboxylic acid pyridin-2-ylmethyl ester]
7 | 97 nM | 2.53 nM | COc1ccc(CC(=O)O)cc1-c1ccc(F)c2c1CN(C(=O)OCc1ccc(F)cc1)CC2 [Example 139, 8-(5-Carboxymethyl-2-methoxy-phenyl)-5-fluoro-3,4-dihydro-1H-isoquinoline-2-carboxylic acid 4-fluoro-benzyl ester]
8 | 56 nM | 1.4 nM | COc1ccc(CC(=O)O)cc1-c1ccc(F)c2c1CN(C(=O)CC1CCc3ccccc3C1)CC2 (racemic) [Example 260]
9 | 91 nM | 0.89 nM | COc1cc(CC(=O)O)ccc1-c1ccc(F)c2c1CN(C(=O)CCCc1ccccc1)CC2 [Example 187, {4-[5-Fluoro-2-(4-phenyl-butyryl)-1,2,3,4-tetrahydro-isoquinolin-8-yl]-3-methoxy-phenyl}-acetic acid]

The remaining lines, values behind:

Row | SMILES | IC50 [1] | IC50 [2]
10 | CCOc1cc(CC(=O)O)ccc1-c1ccc(F)c2c1CN(C(=O)C[C@@H](C)c1ccccc1)CC2 [Example 234, {3-Ethoxy-4-[5-fluoro-2-((R)-3-phenyl-butyryl)-1,2,3,4-tetrahydro-isoquinolin-8-yl]-phenyl}-acetic acid] | 47 nM | 0.9 nM
11 | COc1ccc(CC(=O)O)cc1-c1cc(F)c(F)c2c1CN(C(=O)[C@@H]1C[C@H]1c1ccccc1)CC2 [Example 84, {3-[5,6-Difluoro-2-((1R,2R)-2-phenyl-cyclopropanecarbonyl)-1,2,3,4-tetrahydro-isoquinolin-8-yl]-4-methoxy-phenyl}-acetic acid] | 5 nM | 4.82 nM
12 | CCOc1ccc(CC(=O)O)cc1-c1ccc(F)c2c1CN(C(=O)C(C)Cc1ccccn1)CC2 (racemic) [Example 351] | 26 nM | 3.1 nM
13 | CCOc1ccc(CC(=O)O)cc1-c1ccc(F)c2c1CN(C(=O)OCCC(C)C)CC2 [Example 370, 8-(5-Carboxymethyl-2-ethoxy-phenyl)-5-fluoro-3,4-dihydro-1H-isoquinoline-2-carboxylic acid 3-methyl-butyl ester] | 76 nM | 7 nM
14 | CCOc1ccc(CC(=O)O)cc1-c1ccc(F)c2c1CN(C(=O)[C@@H]1C[C@H]1c1ccccn1)CC2 (racemic) [Example 330] | 15 nM | 0.6 nM
15 | CCOc1cc(CC(=O)O)ccc1-c1ccc(F)c2c1CN(C(=O)CC1(c3ccccc3)CC1)CC2 [Example 230, (3-Ethoxy-4-{5-fluoro-2-[2-(1-phenyl-cyclopropyl)-acetyl]-1,2,3,4-tetrahydro-isoquinolin-8-yl}-phenyl)-acetic acid] | 19 nM | 1 nM
16 | CS(=O)(=O)c1ccc(CC(=O)O)cc1-c1ccc(F)c2c1CN(C(=O)[C@@H]1C[C@H]1c1ccccc1)CC2 [Example 29, {3-[5-Fluoro-2-((1R,2R)-2-phenyl-cyclopropanecarbonyl)-1,2,3,4-tetrahydro-isoquinolin-8-yl]-4-methanesulfonyl-phenyl}-acetic acid] | 20 nM | 6.6 nM
17 | CCOc1ccc(CC(=O)O)cc1-c1ccc(F)c2c1CN(C(=O)OCC1CCCC1)CC2 [Example 369, 8-(5-Carboxymethyl-2-ethoxy-phenyl)-5-fluoro-3,4-dihydro-1H-isoquinoline-2-carboxylic acid cyclopentylmethyl ester] | 266 nM | 8.7 nM
18 | CCOc1ccc(CC(=O)O)cc1-c1ccc(F)c2c1CN(C(=O)OC[C@H](C)c1ccccc1)CC2 [Example 374, 8-(5-Carboxymethyl-2-ethoxy-phenyl)-5-fluoro-3,4-dihydro-1H-isoquinoline-2-carboxylic acid (R)-2-phenyl-propyl ester] | 28 nM | 4.2 nM
19 | O=C(O)Cc1ccc(Cl)c(-c2ccc(F)c3c2CN(C(=O)[C@@H]2C[C@H]2c2ccccc2)CC3)c1 [Example 28, {4-Chloro-3-[5-fluoro-2-((1R,2R)-2-phenyl-cyclopropanecarbonyl)-1,2,3,4-tetrahydro-isoquinolin-8-yl]-phenyl}-acetic acid] | 42 nM | 10 nM
20 | COc1ccc(OCC(=O)O)cc1-c1ccc(F)c2c1CN(C(=O)OCc1ccccc1)CC2 [Example 177, 8-(5-Carboxymethoxy-2-methoxy-phenyl)-5-fluoro-3,4-dihydro-1H-isoquinoline-2-carboxylic acid benzyl ester] | 539 nM | 21.3 nM
21 | O=C(O)Cc1ccc(OCC(F)F)c(-c2ccc(F)c3c2CN(C(=O)OCc2ccccc2)CC3)c1 [Example 413, 8-[5-Carboxymethyl-2-(2,2-difluoro-ethoxy)-phenyl]-5-fluoro-3,4-dihydro-1H-isoquinoline-2-carboxylic acid benzyl ester] | 44 nM | 0.8 nM
22 | CCOc1ccc(CC(=O)O)cc1-c1ccc(F)c2c1CN(C(=O)OCC(C)C)CC2 [Example 377, 8-(5-Carboxymethyl-2-ethoxy-phenyl)-5-fluoro-3,4-dihydro-1H-isoquinoline-2-carboxylic acid isobutyl ester] | 123 nM | 3.4 nM
23 | CCOc1cc(CC(=O)O)ccc1-c1ccc(F)c2c1CN(C(=O)CC1COc3ccccc31)CC2 (racemic) [Example 235] | 20 nM | 0.3 nM
24 | COc1ccc(CC(=O)O)cc1-c1ccc(F)c2c1CCN(C(=O)[C@@H]1C[C@H]1c1ccccc1)CC2 (racemic) [Example 36, (±)-{3-[9-Fluoro-3-(trans-2-phenyl-cyclopropanecarbonyl)-2,3,4,5-tetrahydro-1H-benzo[d]azepin-6-yl]-4-methoxy-phenyl}-acetic acid] | > 1000 nM | 19.9 nM

From US9255090B2, “Heterocyclyl derivatives and their use as prostaglandin D2 receptor modulators” (Actelion Pharmaceuticals Ltd., priority 2012, dated 2016)
